Data on 24 compounds can be found in US5834521A, “Substituted dibenz (A F)azulenes and methods of preparation” (Ortho Pharmaceutical Corporation, priority 1996, dated 1998).

For orientation: IC50 means the concentration that gives 50% inhibition. The low end stands for higher potency, the high end for lower potency.

One assay concerns the target T1, Progestin Receptor (Oryctolagus cuniculus, UniProt P06186).
T1 construct: The high speed supernatant fraction was used as the receptor preparation; from tissue; host or cells: uterus of New Zealand rabbits, 200,000×g supernatant (cytosol)
T1 sequence (P06186 1-930): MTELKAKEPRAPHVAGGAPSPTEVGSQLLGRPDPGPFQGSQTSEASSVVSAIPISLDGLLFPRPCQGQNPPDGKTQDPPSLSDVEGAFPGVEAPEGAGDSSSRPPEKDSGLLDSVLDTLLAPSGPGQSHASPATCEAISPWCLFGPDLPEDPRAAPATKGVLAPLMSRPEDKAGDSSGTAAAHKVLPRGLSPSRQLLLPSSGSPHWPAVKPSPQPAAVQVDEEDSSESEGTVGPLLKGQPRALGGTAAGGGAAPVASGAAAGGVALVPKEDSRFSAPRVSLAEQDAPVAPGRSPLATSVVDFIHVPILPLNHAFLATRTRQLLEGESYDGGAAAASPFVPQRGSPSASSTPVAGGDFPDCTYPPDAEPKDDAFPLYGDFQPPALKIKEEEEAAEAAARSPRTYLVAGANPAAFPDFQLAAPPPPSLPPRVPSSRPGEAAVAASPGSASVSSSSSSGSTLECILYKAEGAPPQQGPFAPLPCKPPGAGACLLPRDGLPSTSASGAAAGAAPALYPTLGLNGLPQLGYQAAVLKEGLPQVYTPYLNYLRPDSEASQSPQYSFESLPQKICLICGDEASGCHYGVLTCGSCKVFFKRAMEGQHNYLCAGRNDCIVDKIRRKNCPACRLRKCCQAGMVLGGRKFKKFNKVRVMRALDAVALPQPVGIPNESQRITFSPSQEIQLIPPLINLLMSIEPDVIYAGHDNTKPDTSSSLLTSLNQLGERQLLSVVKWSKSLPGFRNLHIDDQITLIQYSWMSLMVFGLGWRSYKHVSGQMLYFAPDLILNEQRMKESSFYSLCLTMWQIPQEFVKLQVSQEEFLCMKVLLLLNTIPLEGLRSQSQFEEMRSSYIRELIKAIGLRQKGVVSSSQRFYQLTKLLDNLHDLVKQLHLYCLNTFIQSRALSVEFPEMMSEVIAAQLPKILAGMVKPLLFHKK
Briefly: Progestin Receptor Binding (competitive binding, 3H-promegestone, rabbit uterus receptor preparation). Details: species or system New Zealand rabbits. Conditions: 3H-promegestone displacement, 4° C., 18 h. On the procedure:
Progestin Receptor Binding
The procedure used was essentially that of J. L. McGuire, C.
Uteri from New Zealand rabbits (1.5 to 2.5 kg) were placed in a cold buffer A (0.01 mol Tris-HCl, pH 8.0, 0.001 mol EDTA, 0.25 mol sucrose). The uteri were minced, washed and homogenized in cold buffer A. The homogenate (2 g wet tissue/mL buffer) was centrifuged at 200,000×g for 1 h at 4° C. The high speed supernatant fraction was used as the receptor preparation.
A competitive binding assay was performed by mixing 3H-promegestone with the receptor preparation and adding a known amount of unlabeled compound. This mixture was incubated at 4° C. for 18 h. The compounds bound to the receptor were separated from those which were free in solution using dextran coated charcoal and the amount of isotope bound to the receptor was determined by scintillation counting. The extent of the compound's interaction with the receptor is measured as the percent reduction in the total isotope bound caused by the unlabeled test compound as compared to the control levels. The receptor screen consists of measuring the reduction in the total isotope bound caused by the unlabeled test compound at […] final concentrations.

Assay [1] has as its system T47D human breast carcinoma cells. Briefly: Assay to Demonstrate Ability to Increase Breast Cell Proliferation ([3H]-thymidine incorporation). It is filed as cell-based. Conditions: at the concentration of the same table line, control level set at 100%. The procedure: This assay is used to measure the sex steroid effects of compounds. The activity of compounds in this assay is an indication of their potential use as replacements for naturally occuring hormones in individuals with sex hormone deficiencies.
T47D human breast carcinoma cells are grown in 96-well plates in phenol-red free nutrient media at 37° C. for 48 hours. Conditioned media is removed and replaced with fresh media containing test compounds dissolved in DMSO (0.1% final concentration) and the cells are incubated for an additional 18-20 hours at 37° C. [^3 H]-thymidine is added to each well and allowed to incorporate into DNA for 4 hours. Unlabeled thymidine is then added to terminate the reaction, and the cultures are then washed, trypsinized and harvested. The amount of [^3 H]-thymidineincorporated into DNA is determined by liquid scintillation. Data for each well are expressed as a percent above control level, which is set at 100%. The concentration at which maximal deviation from control is found and the magnitude of that percent deviation is reported. Table T lists the data for some of the compounds of this invention.
Background: Dividing cells build labelled thymidine or BrdU into new DNA.

Turning to `COc1ccc2c(c1)CC1(C)Cc3cc(F)ccc3C1C(O)C2C` (centres unmarked) [Compound 45], the IC50 on Progestin Receptor is 115 nM. Further, the “% control (magnitude of maximal deviation from control)” value in assay [1] is 191%.

As to `CCC[C@]12Cc3ccccc3C1=C[C@@H](C)c1ccc(N)cc1C2` (relative stereo) [Compound 85], the 50% inhibitory concentration (IC50) on Progestin Receptor is 19 nM. Moreover, the “% control (magnitude of maximal deviation from control)” value in assay [1] is given as 215%.

Compound `COc1cc2c(cc1[N+](=O)[O-])C(C)C(O[N+](=O)[O-])C1c3ccccc3CC1(C)C2` (centres unmarked) [Compound 81, 5-(6,11a,-Dimethyl-9-methoxy-8-nitro-4b,5,6,11,11a,12-hexahydro)dibenz[a,f]azulenyl nitrate ester] yielded an IC50 on Progestin Receptor of 82 nM. In addition, the “% control (magnitude of maximal deviation from control)” value in assay [1] amounted to 56%.

`COc1ccc2c(c1)CC1(C)Cc3cc(F)ccc3C1=CC2C` (centres unmarked) [Compound 30, 2-Fluoro-6,11,11a,12-tetrahydro-9-methoxy-6,11a-dimethyldibenz[a,f]azulene] displayed a half-inhibitory concentration (IC50) at Progestin Receptor of 6 nM. Further, the “% control (magnitude of maximal deviation from control)” value in assay [1] is given as 204%.

As for `Cc1ccc2c(c1)CC1(C)Cc3ccccc3C1=CC2` (centres unmarked) [Compound 70], the IC50 on Progestin Receptor is 42 nM. The “% control (magnitude of maximal deviation from control)” value in assay [1] was 173%.

Consider `COc1ccc2c(c1)CC1(C)Cc3cc(OC)ccc3C1C(O)C2C` (centres unmarked) [Compound 78], for which the “% control (magnitude of maximal deviation from control)” value in assay [1] is given as 112%.

Take `CCC[C@]12Cc3cc(F)ccc3[C@H]1CCc1c(cccc1OC)C2` (relative stereo) [Compound 73]: the IC50 at Progestin Receptor was determined as 100 nM.

Consider `CCC12Cc3ccccc3C1=CCc1c(cccc1OC)C2` (centres unmarked) [Compound 52], for which, on Progestin Receptor, the IC50 stood at 68 nM.

On Progestin Receptor, `CCC12Cc3cc(OC)ccc3CC=C1c1ccc(OC)cc1C2` (centres unmarked) [Compound 37] showed an IC50 of 2600 nM.

As to `COc1ccc2c(c1)CC1(C)Cc3cc(OC)ccc3C1=CC2` (centres unmarked) [Compound 34, 6,11,11a,12-Tetrahydro-2,9-dimethoxy-11a-methyl-dibenz[a,f]azulene], the IC50 at Progestin Receptor was 425 nM.

`CC(=O)Oc1cccc2c1CCC1c3ccccc3CC1(C)C2` (centres unmarked) [Compound 108]: at Progestin Receptor, the IC50 amounted to 29 nM.

Compound `COc1ccc2c(c1)C[C@@]1(C)Cc3ccccc3[C@@H]1C[C@H]2C` (relative stereo) [Compound 16] gave a half-maximal inhibitory concentration (IC50) on Progestin Receptor of 353 nM.

Compound `COc1ccc2c(c1)CC1(C)Cc3ccccc3C1=CC2C` (centres unmarked) [Compound 106, 6,11,11a,12-Tetrahydro-9-methoxy-6,11a-dimethyldibenz[a,f]-azulene] yielded an IC50 at Progestin Receptor of 105 nM.

The compound `COc1cc2c(c(OC)c1)[C@H](C)C[C@@H]1c3ccccc3C[C@]1(C)C2` (relative stereo) [Compound 86] displayed a 50% inhibitory concentration (IC50) on Progestin Receptor of 1670 nM.

For the compound `COc1ccc2c(c1)CC1(C)Cc3cc(OC)ccc3C1C(=O)C2` (centres unmarked) [Compound 75], the IC50 on Progestin Receptor turned out to be 555 nM.

As for `CC12Cc3ccccc3C1CCc1c(F)cccc1C2` (centres unmarked) [Compound 98], on Progestin Receptor, the half-inhibitory concentration (IC50) stood at 60 nM.

At Progestin Receptor, `COc1ccc2c(c1)C[C@@]1(C)Cc3ccccc3[C@H]1[C@H](O)[C@H]2C` (relative stereo) [Compound 13, 6,11a-Dimethyl-5-hydroxy-9-methoxy-4b,5,6,11,11a,12-hexahydrodibenz[a,f]azulene (α--OH)] displayed an IC50 of 337 nM.

Compound `CCCC12Cc3ccccc3C1=CCc1c(cccc1OC)C2` (centres unmarked) [Compound 29] displayed an IC50 on Progestin Receptor of 15 nM.

For `COc1cccc2c1[C@H](C)C[C@@H]1c3ccccc3C[C@]1(C)C2` (relative stereo) [Compound 54], the IC50 on Progestin Receptor turned out to be 118 nM.

At Progestin Receptor, “4b,5,6,11,11a,12-Hexahydro-7-methoxy-6,11a-dimethyldibenz-[a,f]azulene [Compound 109]” registered an IC50 of 1250 nM.

On to `CCCC12Cc3cc(OC)ccc3CCC1c1ccccc1C2` (centres unmarked) [Compound 35], for which the IC50 on Progestin Receptor is 133 nM.

`CC(=O)Nc1ccc2c(c1)CC1(C)Cc3ccccc3C1=CC2` (centres unmarked) [Compound 95]: the IC50 at Progestin Receptor came to 1770 nM.

For `CCCCC12Cc3cc(OC)ccc3CC=C1c1ccccc1C2` (centres unmarked) [Compound 67], the IC50 at Progestin Receptor stood at 185 nM.

In the case of `COc1cccc2c1CC=C1c3ccccc3CC1(C)C2` (centres unmarked) [Compound 1, 7-Methoxy-11a-methyl-6,11,11a,12-tetrahydrodibenz[a,f]azulene], the half-maximal inhibitory concentration (IC50) on Progestin Receptor turned out to be 143 nM.
